Source: patent publication US4359458A, “O-β. -D (and O-α.. -D) Multigalactopyranosyl, xylopyranosyl and glucopyranosyl sulfate salts” (American Cyanamid Company, priority 1981, dated 1982)
Where a name gives a salt, the structure may show the parent alone.

Experiments:
[1] = tested on: shunt pathway activated by cobra venom factor; test: Test Code 036 (C-Shunt inhibitor); type: cell-based, human; details: serial dilution assay, twofold dilutions; higher well number indicates higher activity; N = Negative
Excerpt: (§1) An active inhibitor protects C2 from C1 and C4; (ii) Test Code 035 (C3-C9 inhibitor)--This test determines the ability of the late components of human complement (C3-C9) to lyse EAC 142 in the presence of appropriate dilutions of the test compound. An active inhibitor protects EAC 142 from lysis by human C3-C9; (iii) Test Code 036 (C-Shunt inhibitor)--In this test human erythrocytes rendered fragile are lysed in autologous serum via the shunt pathway activated by cobra venom factor in the presence of appropriate dilutions of the test compound. Inhibition of the shunt pathway results in failure of lysis; (iv) Cap 50 Test--Here, appropriate amounts of the test compound are added to a pool of guinea pig serum in vitro, after which the undiluted serum capillary tube assay of U.S. Pat. No. 3,876,376 is run. The concentration of compound inhibiting 50% is reported; and (v) Guinea Pig Intraperitoneal Test (GPIP)--Guinea pigs weighing about 300 g are dosed intraperitoneally (i.p.) with 200 mg/kg of the test compound dissolved in saline and adjusted to pH 7-8. Approximately 0.4 ml blood samples, taken by orbital sinus puncture 30 minutes and one hour after injections, are collected directly into centrifuge tubes; 5 ml blood samples, taken by decapitation 2 hours after injection are collected directly into beakers. The samples are allowed to clot, centrifuged, and the resultant sera are assayed for complement activity using the capillary complement assay. Percent inhibition is calculated by comparison with simultaneous controls. The results of the GPIP appear in Table I together with results of test code 026, 035, 036 and Cap 50.

[2] = tested on: late components of human complement (C3-C9); test: Test Code 035 (C3-C9 inhibitor); type: biochemical; details: serial dilution assay, twofold dilutions; higher well number indicates higher activity; N = Negative
Excerpt: as §1

activated human C1 = activated human C1 (Homo sapiens, UniProt P09871); test: Test Code 026 (C1 inhibitor); type: biochemical; details: serial dilution assay, twofold dilutions; higher well number indicates higher activity
Excerpt: as §1

## O=S(=O)(O)OC[C@H]1O[C@@H](OC[C@H]2O[C@H](O[C@H]3O[C@H](CO[C@@H]4O[C@H](COS(=O)(=O)O)[C@@H](O[C@H]5O[C@H](COS(=O)(=O)O)[C@@H](O[C@H]6O[C@H](COS(=O)(=O)O)[C@@H](O[C@H]7O[C@H](COS(=O)(=O)O)[C@@H](O[C@H]8O[C@H](COS(=O)(=O)O)[C@@H](O[C@H]9O[C@H](COS(=O)(=O)O)[C@@H](O[C@H]%10O[C@H](COS(=O)(=O)O)[C@@H](OS(=O)(=O)O)[C@H](OS(=O)(=O)O)[C@H]%10OS(=O)(=O)O)[C@H](OS(=O)(=O)O)[C@H]9OS(=O)(=O)O)[C@H](OS(=O)(=O)O)[C@H]8OS(=O)(=O)O)[C@H](OS(=O)(=O)O)[C@H]7OS(=O)(=O)O)[C@H](OS(=O)(=O)O)[C@H]6OS(=O)(=O)O)[C@H](OS(=O)(=O)O)[C@H]5OS(=O)(=O)O)[C@H](OS(=O)(=O)O)[C@H]4OS(=O)(=O)O)[C@@H](OS(=O)(=O)O)[C@H](OS(=O)(=O)O)[C@H]3OS(=O)(=O)O)[C@H](OS(=O)(=O)O)[C@@H](OS(=O)(=O)O)[C@@H]2OS(=O)(=O)O)[C@H](OS(=O)(=O)O)[C@@H](OS(=O)(=O)O)[C@@H]1O[C@H]1O[C@H](COS(=O)(=O)O)[C@@H](O[C@H]2O[C@H](COS(=O)(=O)O)[C@@H](O[C@H]3O[C@H](COS(=O)(=O)O)[C@@H](O[C@H]4O[C@H](COS(=O)(=O)O)[C@@H](O[C@H]5O[C@H](COS(=O)(=O)O)[C@@H](O[C@H]6O[C@H](COS(=O)(=O)O)[C@@H](OS(=O)(=O)O)[C@H](OS(=O)(=O)O)[C@H]6OS(=O)(=O)O)[C@H](OS(=O)(=O)O)[C@H]5OS(=O)(=O)O)[C@H](OS(=O)(=O)O)[C@H]4OS(=O)(=O)O)[C@H](OS(=O)(=O)O)[C@H]3OS(=O)(=O)O)[C@H](OS(=O)(=O)O)[C@H]2OS(=O)(=O)O)[C@H](OS(=O)(=O)O)[C@H]1OS(=O)(=O)O [drawing 23, Glc 1α,4 (glc 1α,4)5 glc 1β,6 glc 1α,1α'glc 1β,6 glc (glc 1α,4)5 1α,4 glc, pentacontakis (H-sulfate), pentacontasodium salt]
[1]
  C-Shunt Inhibition 036 Wells: 6 Wells
[2]
  C-Late 035 Wells: 2 Wells
Activated human C1
  Cl 026 Wells: 9 Wells

## O=S(=O)(O)OC[C@H]1O[C@@H](OC[C@H]2O[C@H](O[C@H]3O[C@H](COS(=O)(=O)O)[C@@H](OS(=O)(=O)O)[C@H](OS(=O)(=O)O)[C@H]3OS(=O)(=O)O)[C@H](OS(=O)(=O)O)[C@@H](OS(=O)(=O)O)[C@@H]2OS(=O)(=O)O)[C@H](OS(=O)(=O)O)[C@@H](OS(=O)(=O)O)[C@@H]1O[C@H]1O[C@H](COS(=O)(=O)O)[C@@H](O[C@H]2O[C@H](COS(=O)(=O)O)[C@@H](O[C@H]3O[C@H](COS(=O)(=O)O)[C@@H](O[C@H]4O[C@H](COS(=O)(=O)O)[C@@H](O[C@H]5O[C@H](COS(=O)(=O)O)[C@@H](O[C@H]6O[C@H](COS(=O)(=O)O)[C@@H](OS(=O)(=O)O)[C@H](OS(=O)(=O)O)[C@H]6OS(=O)(=O)O)[C@H](OS(=O)(=O)O)[C@H]5OS(=O)(=O)O)[C@H](OS(=O)(=O)O)[C@H]4OS(=O)(=O)O)[C@H](OS(=O)(=O)O)[C@H]3OS(=O)(=O)O)[C@H](OS(=O)(=O)O)[C@H]2OS(=O)(=O)O)[C@H](OS(=O)(=O)O)[C@H]1OS(=O)(=O)O [drawing 25, Glc 1α,4 (glc 1α,4)5 glc 1β,6 glc 1α,1α'glc, nonacosakis (H-sulfate), nonacosasalt with trimethylamine]
[1]
  C-Shunt Inhibition 036 Wells: 5 Wells
[2]
  C-Late 035 Wells: N
Activated human C1
  Cl 026 Wells: 9 Wells

## O=S(=O)(O)OC[C@H]1O[C@@H](OC[C@H]2O[C@H](O[C@H]3O[C@H](CO[C@@H]4O[C@H](COS(=O)(=O)O)[C@H](OS(=O)(=O)O)[C@H](OS(=O)(=O)O)[C@H]4OS(=O)(=O)O)[C@@H](OS(=O)(=O)O)[C@H](OS(=O)(=O)O)[C@H]3OS(=O)(=O)O)[C@H](OS(=O)(=O)O)[C@@H](OS(=O)(=O)O)[C@@H]2OS(=O)(=O)O)[C@H](OS(=O)(=O)O)[C@@H](OS(=O)(=O)O)[C@H]1OS(=O)(=O)O [drawing 12, Gal 1β,6 glc 1α,1α' glc 1β,6 gal, tetradecakis (H-sulfate), tetradecasodium salt]
[1]
  C-Shunt Inhibition 036 Wells: 6 Wells
Activated human C1
  Cl 026 Wells: 9 Wells

## O=S(=O)(O)O[C@@H]1[C@@H](OS(=O)(=O)O)[C@@H](O[C@H]2O[C@H](CO[C@@H]3OC[C@@H](OS(=O)(=O)O)[C@H](OS(=O)(=O)O)[C@H]3OS(=O)(=O)O)[C@@H](OS(=O)(=O)O)[C@H](OS(=O)(=O)O)[C@H]2OS(=O)(=O)O)O[C@H](CO[C@@H]2OC[C@@H](OS(=O)(=O)O)[C@H](OS(=O)(=O)O)[C@H]2OS(=O)(=O)O)[C@H]1OS(=O)(=O)O [drawing 13, Xyl 1β,6 glc 1α,1α' glc 1β,6 xyl, dodecakis (H-sulfate), dodecasalt with trimethylamine]
[1]
  C-Shunt Inhibition 036 Wells: 3 Wells
Activated human C1
  Cl 026 Wells: 10 Wells

## O=S(=O)(O)OC[C@H]1O[C@@H](OC[C@H]2O[C@H](O[C@H]3O[C@H](CO[C@@H]4O[C@H](COS(=O)(=O)O)[C@@H](O[C@H]5O[C@H](COS(=O)(=O)O)[C@@H](OS(=O)(=O)O)[C@H](OS(=O)(=O)O)[C@H]5OS(=O)(=O)O)[C@H](OS(=O)(=O)O)[C@H]4OS(=O)(=O)O)[C@@H](OS(=O)(=O)O)[C@H](OS(=O)(=O)O)[C@H]3OS(=O)(=O)O)[C@H](OS(=O)(=O)O)[C@@H](OS(=O)(=O)O)[C@@H]2OS(=O)(=O)O)[C@H](OS(=O)(=O)O)[C@@H](OS(=O)(=O)O)[C@@H]1O[C@H]1O[C@H](COS(=O)(=O)O)[C@@H](OS(=O)(=O)O)[C@H](OS(=O)(=O)O)[C@H]1OS(=O)(=O)O [drawing 15, Glc 1α,4 glc 1β,6 glc 1α,1α' glc 1β,6 glc 1α,4 glc, eicosakis (H-sulfate), eicosasalt with trimethylamine]
[1]
  C-Shunt Inhibition 036 Wells: N
[2]
  C-Late 035 Wells: N
Activated human C1
  Cl 026 Wells: 5 Wells

## O=S(=O)(O)OC[C@H]1O[C@@H](OC[C@H]2O[C@H](O[C@H]3O[C@H](CO[C@@H]4O[C@H](COS(=O)(=O)O)[C@H](OS(=O)(=O)O)[C@H](OS(=O)(=O)O)[C@H]4OS(=O)(=O)O)[C@@H](OS(=O)(=O)O)[C@H](OS(=O)(=O)O)[C@H]3OS(=O)(=O)O)[C@H](OS(=O)(=O)O)[C@@H](OS(=O)(=O)O)[C@@H]2OS(=O)(=O)O)[C@H](OS(=O)(=O)O)[C@@H](OS(=O)(=O)O)[C@H]1OS(=O)(=O)O [drawing 11, Gal 1β,6 glc 1α,1α' glc 1β,6 gal, tetradecakis (H-sulfate), tetradecasalt with trimethylamine]
[1]
  C-Shunt Inhibition 036 Wells: 5 Wells
Activated human C1
  Cl 026 Wells: 9 Wells
